Assay results taken from patent US20100189681A1, “Methods of Using Phosphoantigens Together with Interleukin-2 for the Treatment of Cancer” (INNATE PHARMA S.A., priority 2007, published 2010).
Entries after “also recorded” stand apart in the source; their conditions may differ.

Key:
Vγ9Vδ2 T cells = assay: IL-2 dose range with fixed dose of Phosphostim in cynomolgus macaque, Vγ9Vδ2 T cell expansion by flow cytometry; assay type: in vivo, cynomolgus monkeys (M. fascicularis); details: Phosphostim 48 mg/kg i.v. once, day 5 vs day 0
Protocol: As detailed in Example 2, a study has been set up on nonhuman primates (Cynomolgus macaques) to investigate the effect of the IL-2 dose on γδ T cell expansion in vivo, with a fixed dose of Phosphostim™ (48 mg/kg). Blood extracts have been dosed by flow cytometry on day 5 and the γδ T cell expansion has been expressed in expansion percentage compared to the basal γδ T cell count.
Follow up of Vγ9Vδ2 T cells in vivo in the macaque has been performed as usual by flow cytometry on days 0 (pre-dose) and 5 of treatment. […]
IL2: recombinant human IL2, Proleukin™, CHIRON; administered daily by subcutaneous (s.c.) route.
Phosphostim™ dose 48 mg/kg administered as 30-min infusion by intravenous (i.v.) route.
Twelve cynomolgus monkeys (M. fascicularis) aged 2.5 to 3.5 years at the start of the study. These animals were naïve of any previous treatment with phosphoantigens or IL2.
The animals have been allocated to 4 dose-groups (0.075, 0.3, 1.2 and 2.4 million UI per day for 7 days), with 3 animals per dose, receiving IL2 daily for 7 days have, and a fixed dose of Phosphostim™ 200 (48 mg/kg) once, on the first day of treatment, with 3 animals per dose.

γδ T cells [1] = assay: Phase II clinical trial in mRCC, γδ T cell fold increase day 7 vs pre-dose (flow cytometry); assay type: in vivo, human
Protocol: Blood samples (4 ml) were withdrawn into EDTA containing tubes. Tubes were shipped overnight at room temperature (RT) before flow cytometry analyses.
Peripheral lymphocytes were analyzed by flow cytometry on total blood, after triple staining with anti-Vδ2FITC, anti-CD3PE and anti-CD25PC5 antibodies (Vδ2-FITC: IMMU389 clone, Immunotech-Beckman-Coulter, Marseilles, France; CD3-PE: UCHT1 clone, Immunotech-Beckman-Coulter; CD25PC5: M-A251 clone, Becton Dickinson, Le Pont de Claix, France).
Briefly, 100 μl patient blood was incubated 15 min at RT with 10 μl anti-Vdelta2-FITC, 10 μl anti-CD3-PE and 10 μl anti-CD25PC5 antibodies. Antibodies were washed with 3 ml 1×PBS, centrifuged for 4 min at 1300 rpm at RT and supernatant was discarded. Red cells were lysed with the OptiLyse B reagent (Immunotech-Beckman-Coulter, Marseilles, France) according to the manufacturer's instructions. At the final step, stained white blood cells were recovered by centrifugation and resuspended in 300 μl 1×PBS+0.2% PFA. Flow cytometry analysis on viable cells was performed on a FacsSCAN apparatus (Becton Dickinson) with the FacsDiva software.
(§1) A phase II clinical trial in mRCC was set up, to test the efficacy of a therapeutic regimen with a fixed dose of Phosphostim™ (750 mg/m^2, 50 ml infusion in 30 min) and two doses of IL-2.
(§2) Patients in Arm A were treated with an IL-2 dose of 2 MIU total daily (equivalent to approximately 1 MIU/m^2 daily). Patients in Arm B were treated with an IL-2 dose of 8 MIU total daily. For practical reasons, and as a human body surface varies from 1.5 to 2.1 m^2 depending on each variable of the patient, a single dose for all the patients of Arm B was fixed. It will be appreciated that when taking the variations in body surface into account, this 8 MIU total daily dose of IL-2 can also be expressed as a range from […] daily.
(§3) Patients suffering from mRCC were treated with a fixed dose of Phosphostim™ (750 mg/m^2, i.v. infusion of 30 min) and IL-2, at a dose of 2 MIU subcutaneous (s.c.) daily (arm A, 18 patients), or 8 MIU s.c. daily (arm B, 21 patients).
(§4) Phosphostim™ was administered once on day 1 which is the first day of treatment. IL-2 is administered daily s.c. from day 1 to day 5. On day 1, IL-2 is administered 10 minutes after the end of Phosphostim™ infusion.
γδ T cell population was measured through cytometry on day 0 (before the beginning of the treatment) and on day 7. The expansion of γδ T cell was obtained in fold increase of expansion compared to the basal γδ T cell count.

NK cells = assay: Phase II clinical trial in mRCC, NK cell fold increase day 7 vs pre-dose; assay type: in vivo, human; details: Phosphostim with IL-2 2 MIU or 8 MIU total daily (FIG. 3)
Protocol: (§5) FIG. 3 has been obtained from observations made during the clinical trial as described above. On day 7, cell subsets were determined and compared to the count made on day 0, before the treatment.
(§6) A specific pharmacological expansion of γδ T cell with Phosphostim™ was observed, and this expansion was related to dose of IL-2 administered. […] Moreover, despite an increased dose of IL-2 compared to previous publications, this expansion is still very specific to γδ T cells.

total T cells = assay: Phase II clinical trial in mRCC, total T cell fold increase day 7 vs pre-dose; assay type: in vivo, human; details: Phosphostim with IL-2 2 MIU or 8 MIU total daily (FIG. 3)
Protocol: as §5, §6

[2] = Phase II clinical trial in mRCC, tolerance / toxicity; assay type: in vivo, human; details: mRCC patients
Protocol: as §1, §2, §3, §4

γδ T cells [3] = assay: Phase II clinical trial in B-NHL with rituximab, γδ T cell fold increase; assay type: in vivo, human; details: for γδ T cell fold increase as compared to pre-dose (mean): B-NHL, Phosphostim once day 7, rituximab 375 mg/m^2, measured day 0 and day 145
Protocol: (§7) 5 patients suffering from B-NHL are treated with 4 MIU total in human daily (arm A, 3 patients), or 8 MIU total in human daily (arm B, 2 patients). The treatment regimen used for this study is set out in FIG. 4B.
(§8) Rituxan™ (rituximab) is administered at a dose of 375 mg/m^2, on day 0 and then on day 7, 14 and 21, which corresponds to the common Rituxan™ treatment. Phosphostim™ is administered once on day 7 which is the first day of treatment. IL-2 is administered daily subcutaneous (s.c.) from day 7 to day 11. On day 7, IL-2 is administered 10 minutes after the end of Phosphostim™ infusion.
γδ T cell population is measured through cytometry on day 0 (before the beginning of the treatment) and on day 145 (corresponds to day 7 from the beginning of the Phosphostim™ treatment. The expansion of γδ T cell is obtained in fold increase compared to the basal γδ T cell count.

[4] = Phase II clinical trial in B-NHL with rituximab, tolerance / toxicity; assay type: in vivo, human; details: B-NHL patients
Protocol: as §7, §8

γδ T cells [5] = assay: Phase I BrHPP dose escalation with IL-2 1 MU/m^2, γδ T cell amplification (FIG. 7); assay type: in vivo, human; details: BrHPP 100, 300, 600 and 900 MU/m^2 iv 30 min infusion day 1; IL-2 1 MU/m^2 daily for four days
Protocol: The first four columns (corresponding to 100, 300, 600 and 900 MU/m^2 doses of BrHPP) correspond to patients treated with BrHPP (iv, 30 min infusion on day 1) and IL-2 (1 MU/m^2 daily for four days starting on day 1) whereas the last two columns represent B-NHL patients who have been treated with 4 MIU total in human daily (arm A), or 8 MIU total in human daily (arm B), in the treatment setting described for FIG. 6.

γδ T cells [6] = details: adults with multiple myeloma, intravenous 60-90 mg, within one to three weeks (Kunzmann, 1999); cited from earlier work
[7] = in vivo; cited from earlier work

3-(bromomethyl)-3-butanol-1-yl-diphosphate [Phosphostim™]
γδ T cell expansion (Vγ9Vδ2 T cells; IL-2 0.075 MIU/animal/day s.c. for 7 days): not sufficient to induce a γδT cell specific amplification; also recorded: no effect | γδ T cell expansion (Vγ9Vδ2 T cells; IL-2 0.3 MIU/animal/day s.c. for 7 days): specific and significant γδcell expansion; also recorded: weak γδT cell increase | γδ T cell expansion (Vγ9Vδ2 T cells; IL-2 1.2 MIU/animal/day s.c. for 7 days): the expansion is higher; also recorded: significantly higher increase; also recorded: a plateau is observed at this dose | γδ T cell expansion (Vγ9Vδ2 T cells; IL-2 2.4 MIU/animal/day s.c. for 7 days): the expansion is higher; also recorded: significantly higher increase; also recorded: does not trigger a better expansion than 1.2 MIU/animal/daily | γδ T cell expansion, arm B compared to arm A (γδ T cells [1]; IL-2 8 MIU total daily vs 2 MIU total daily, fixed Phosphostim 750 mg/m^2): significantly better γδ T cell expansion; also recorded: significantly higher | γδ T cell fold increase on day 7 as compared to pre-dose (mean) (γδ T cells [1]; arm A: IL-2 2 MIU total daily s.c. day 1-5, Phosphostim 750 mg/m^2 i.v. day 1, 18 patients (FIG. 2)): 3 fold | γδ T cell fold increase on day 7 as compared to pre-dose (mean) (γδ T cells [1]; arm A: IL-2 2 MIU total daily, updated results, 29 patients (FIG. 5)): 2 fold | γδ T cell fold increase on day 7 as compared to pre-dose (mean) (γδ T cells [1]; arm B: IL-2 8 MIU total daily s.c. day 1-5, Phosphostim 750 mg/m^2 i.v. day 1, 21 patients (FIG. 2)): 12 fold | γδ T cell fold increase on day 7 as compared to pre-dose (mean) (γδ T cells [1]; arm B: IL-2 8 MIU total daily, updated results, 31 patients (FIG. 5)): 8 fold | NK cell fold increase on day 7 as compared to pre-dose (NK cells): are not expanded; also recorded: do not observe a significant NK cells expansion | total T cell fold increase on day 7 as compared to pre-dose (total T cells): are not expanded; also recorded: nor a significant total T cell expansion | toxicity in Arm B compared to Arm A ([2]; IL-2 8 MIU vs 2 MIU total daily with Phosphostim): none of the patients in arm B experienced an adverse toxicity effect; also recorded: no significant difference in toxicity | tolerance to the IL-2 dose administered with Phosphostim ([2]; arm B IL-2 8 MIU total daily): good tolerance | γδ T cell fold increase as compared to pre-dose (mean) (γδ T cells [3]; arm A: IL-2 4 MIU total daily s.c. day 7-11, 3 patients): 17 fold | γδ T cell fold increase as compared to pre-dose (mean) (γδ T cells [3]; arm B: IL-2 8 MIU total daily s.c. day 7-11, 2 patients): 46 fold | γδ T cell amplification, higher IL-2 dose compared to lower dose (γδ T cells [3]; IL-2 8 MIU total daily vs lower IL-2 doses (FIGS. 6 and 7)): much better γδ T cell amplification | toxicity in Arm B compared to Arm A ([4]; IL-2 8 MIU vs 4 MIU total daily): no significant difference in toxicity | tolerance to the IL-2 dose administered with Phosphostim and rituximab ([4]; arm B IL-2 8 MIU total daily): good tolerance | influence of the quantity of BrHPP on the γδ T cell amplification (γδ T cells [5]): slight influence

NCCC(O)(P(=O)(O)O)P(=O)(O)O [pamidronate, 3-amino-1-hydroxypropane-1,1-diphosphonic acid]
circulating γδ T cells (γδ T cells [6]): increases of circulating γδ T cells

des-alanyl-1, serine-125-human interleukin-2 [IL-2]
toxicity grade reported [7]: grade III or IV toxicity
